Data set [1] can be described thus: Metabolic stability in mouse liver microsomes assessed as depletion measured after 30 mins. It counts as ADME, Microsome. The note with it: read-out: Drug degradation. (In general: Liver microsomes are vesicles of endoplasmic reticulum, rich in cytochrome P450 enzymes.)
Data set [2] deals with T1, Leukotriene A-4 hydrolase (Homo sapiens) (UniProt P09960).
T1 sequence (whole entry): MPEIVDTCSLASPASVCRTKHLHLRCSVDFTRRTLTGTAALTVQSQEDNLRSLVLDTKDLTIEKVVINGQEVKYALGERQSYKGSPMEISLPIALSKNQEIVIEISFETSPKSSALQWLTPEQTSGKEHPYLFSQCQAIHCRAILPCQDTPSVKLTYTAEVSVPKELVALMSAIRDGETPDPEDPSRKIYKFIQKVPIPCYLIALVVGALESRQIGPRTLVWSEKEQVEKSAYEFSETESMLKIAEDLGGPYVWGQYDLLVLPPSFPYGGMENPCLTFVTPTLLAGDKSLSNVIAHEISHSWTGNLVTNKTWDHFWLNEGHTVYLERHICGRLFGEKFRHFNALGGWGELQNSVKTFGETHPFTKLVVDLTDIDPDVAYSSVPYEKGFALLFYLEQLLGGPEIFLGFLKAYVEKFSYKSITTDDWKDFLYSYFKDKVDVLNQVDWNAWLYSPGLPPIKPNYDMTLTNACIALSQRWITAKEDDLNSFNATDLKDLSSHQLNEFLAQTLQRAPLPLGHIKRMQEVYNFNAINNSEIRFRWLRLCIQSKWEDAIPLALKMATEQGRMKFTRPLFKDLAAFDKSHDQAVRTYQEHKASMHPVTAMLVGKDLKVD
In words: Activation of human recombinant LTA4H aminopeptidase activity assessed as alanine-p-nitroanilide (Ala-pNA) hydrolysis at 10 uM measured within 2 mins time window by LCMS analysis.

For data set [3], the species on record is Mus musculus. Kind of data set: Reduction in LTB4 level in 1000 CFU of Klebsiella pneumonia ATCC 43816 intranasal infected C57BL/6 mouse pneumonia model assessed as LTB4 level in bronchoalveolar lavage fluid (BALF) ELISA based by Epoxide hydrolase assay. The class given is functional.
For data set [4], the species on record is Mus musculus. Kind of data set: Anti-inflammatory activity against 1000 CFU of Klebsiella pneumonia ATCC 43816 intranasal infected C57BL/6 mouse pneumonia model assessed as mouse survival treated a day after bacterial exposure measured upto 14 days. It counts as functional, organism-based. The note with it: time <= 14.0 day.
Data set [5] has as its target T2, Leukotriene A-4 hydrolase (Homo sapiens, UniProt P09960).
T2 sequence (P09960 whole entry): T1 sequence (whole entry)
Kind of data set: Inhibition of human recombinant LTA4H aminopeptidase activity assessed as alanine-p-nitroanilide (Ala-pNA) hydrolysis by LCMS analysis.

The target of data set [6] is T2, Leukotriene A-4 hydrolase. Kind of data set: Activation of human recombinant LTA4H aminopeptidase activity assessed as alanine-p-nitroanilide (Ala-pNA) hydrolysis by LCMS analysis.

The values below come from ChEMBL document CHEMBL5523709, “Synthesis and Evaluation of diaryl ether modulators of the leukotriene A4 hydrolase aminopeptidase activity” (Eur J Med Chem, 2024).

SMILES strings stand for the structures. Activity calls are given as the source filed them. No cut-off for these calls is given here.

`C[C@]12CC[C@H]3[C@@H](CCC4=CC(=O)CC[C@@]43C)[C@@H]1CC[C@@H]2O` [TESTOSTERONE]: the metabolised at 0.5 h in data set [1] was determined as 98%.

As to `Nc1cc[nH]n1`, the outcome in data set [2] and in data set [4] was inactive. The metabolised at 0.5 h in data set [1] stood at 18%. The outcome in data set [3] was Active.

`Clc1ccc(Oc2ccc(N3CCNCC3)cc2)cc1`: the IC50 (usually the concentration that gives 50% inhibition) in data set [5] is 3330 nM.

Take `Nc1cc(-c2ccc(Oc3ccc(Cl)cc3)cc2)n[nH]1`: the EC50 – broadly, the concentration giving half of the maximal effect – in data set [6] came out at 120 nM.

In the case of `Nc1nc(-c2ccc(Cc3ccccc3)cc2)cs1`, in data set [6], the EC50 turned out to be 240 nM.
